Legend:
[1] = test system: NCI-H292: human mucoepidermoid lung carcinoma cells; assay: MTT assay, cytotoxic effect on NCI-H292; format: cell-based; conditions: Table 2, metabolites and small-molecule reference examples
Protocol: (§1) The analysis of the cytotoxic effects of the ADCs was carried out with various cell lines:
(§2) The cells were cultivated by the standard method as stated by the American Tissue Culture Collection (ATCC) or the Leibniz-Institut DSMZ-Deutsche Sammlung von Mikroorganismen und Zellkulturen GmbH (DSMZ) for the cell lines in question.
(§3) The cells were then incubated in an incubator at 37° C., and 5% carbon dioxide. […] To this end, the MTT reagent was incubated with the cells for 4 h, followed by lysis of the cells overnight by addition of the detergent. […] The measured data were used to calculate the IC50 of the growth inhibition using the DRC (dose response curve). The proliferation of cells which were not treated with test substance but were otherwise identically treated was defined as the 100% figure.

[2] = test system: SK-HEP-1: human liver cell cancer line; assay: MTT assay, cytotoxic effect on SK-HEP-1; format: cell-based; conditions: Table 2, metabolites and small-molecule reference examples
Protocol: as §1, §2, §3

[3] = test system: KPL4: human breast cancer cell line; assay: MTT assay, cytotoxic effect on KPL4; format: cell-based; conditions: Table 2, metabolites and small-molecule reference examples
Protocol: as §1, §2, §3

[4] = test system: Caco-2 cells; assay: Caco-2 flux assay for cell permeability; format: in vitro ADME; conditions: Caco-2, 2 hours incubation
[5] = Caco-2 flux assay for cell permeability; format: in vitro ADME; conditions: human; for Papp B→A at 2 h: Caco-2, 2 hours incubation; for efflux ratio at 2 h: ratio of Papp (B-A) to Papp (A-B), Caco-2

Compound | Papp (B-A) [4] | Papp B→A at 2 h [5] | efflux ratio at 2 h [5] | IC50 [1] | IC50 [2] | further results
CC(C)(C)[C@H](c1cc(-c2cc(F)ccc2F)cn1Cc1ccccc1)N(CC[C@H](N)C(=O)N[C@H](CCC(=O)O)C(=O)O)C(=O)CO.O=C(O)C(F)(F)F [Example M25, N-{(2S)-2-Amino-4-[{(1R)-1-[1-benzyl-4-(2,5-difluorophenyl)-1H-pyrrol-2-yl]-2,2-dimethylpropyl}(glycoloyl)amino]butanoyl}-L-glutamic acid/trifluoroacetic acid (1:1)] | 0.81 ×10⁻⁶ cm/s | – | – | – | – | IC50 ([1]; Homo sapiens, NCI-H292): 500 nM; IC50 ([2]; Homo sapiens, SK-HEP1): 500 nM; IC50 ([3]; Homo sapiens, KPL4): 500 nM
CC(C)(C)[C@H](c1cc(-c2cc(F)ccc2F)cn1Cc1ccccc1)N(CCCN)C(=O)CSC[C@H](NC(=O)CCOCCOCCOCCOCCNC(=O)CNC(=O)CC(SC[C@H](N)C(=O)O)C(=O)O)C(=O)O.O=C(O)C(F)(F)F.O=C(O)C(F)(F)F (stereo partly drawn) [Example M20, (1R,4R,27R,33R)-1-Amino-32-(3-aminopropyl)-33-[1-benzyl-4-(2,5-difluorophenyl)-1H-pyrrol-2-yl]-34,34-dimethyl-6,9,25,31-tetraoxo-13,16,19,22-tetraoxa-3,29-dithia-7,10,26,32-tetraazapentatriacontane-1,4,27-tricarboxylic acid/trifluoroacetic acid (1:2)] | – | 0.09 ×10⁻⁶ cm/s | – | – | – | –
CC(C)(C)[C@H](c1cc(-c2cc(F)ccc2F)cn1Cc1ccccc1)N(CC[C@H](N)C(=O)NCCNC(=O)CCCC(=O)NCCCC[C@H](N)C(=O)O)C(=O)CO.O=C(O)C(F)(F)F [Example M29, N^6-(5-{[2-({(2S)-2-Amino-4-[{(1R)-1-[1-benzyl-4-(2,5-difluorophenyl)-1H-pyrrol-2-yl]-2,2-dimethylpropyl}(glycoloyl)amino]butanoyl}amino)ethyl]amino}-5-oxopentanoyl)-L-lysine/trifluoroacetic acid (1:1)] | – | 0.41 ×10⁻⁶ cm/s | 5.3 | – | – | –
CC(C)(C)[C@H](c1cc(-c2cc(F)ccc2F)cn1Cc1ccccc1)N(CC[C@H](N)C(=O)NCCNC(=O)CNC(=O)CC(SC[C@H](N)C(=O)O)C(=O)O)C(=O)CO.O=C(O)C(F)(F)F (stereo partly drawn) [Example M26, 4-[(2-{[2-({(2S)-2-Amino-4-[{(1R)-1-[1-benzyl-4-(2,5-difluorophenyl)-1H-pyrrol-2-yl]-2,2-dimethylpropyl}(glycoloyl)amino]butanoyl}amino)ethyl]amino}-2-oxoethyl)amino]-2-{[(2R)-2-amino-2-carboxyethyl]sulphanyl}-4-oxobutanoic acid/trifluoroacetic acid (1:1)] | 1.3 ×10⁻⁶ cm/s | – | – | 63.8 nM | 19 nM | –
CC(C)(C)[C@H](c1cc(-c2cc(F)ccc2F)cn1Cc1ccccc1)N(CC[C@H](N)C(=O)NCCNC(=O)CNC(=O)C(CC(=O)O)SC[C@H](N)C(=O)O)C(=O)CO (single isomer, unassigned) [Example M16] | – | – | – | 143 nM | 44 nM | IC50 [3]: 195 nM
CC(C)(C)[C@H](c1cc(-c2cc(F)ccc2F)cn1Cc1ccccc1)N(CC[C@H](N)C(=O)NCCNC(=O)CNC(=O)CCCC(=O)NCCCC[C@H](N)C(=O)O)C(=O)CO.O=C(O)C(F)(F)F [Example M28, N^6-{(3R,7S)-7-Amino-3-[1-benzyl-4-(2,5-difluorophenyl)-1H-pyrrol-2-yl]-4-glycoloyl-2,2-dimethyl-8,13,16,20-tetraoxo-4,9,12,15-tetraazaicosan-20-yl}-L-lysine/trifluoroacetic acid (1:1)] | – | 0.19 ×10⁻⁶ cm/s | 1 | – | – | –

— US20240043379A1, “PRODRUGS OF CYTOTOXIC ACTIVE AGENTS HAVING ENZYMATICALLY CLEAVABLE GROUPS” (Bayer Pharma Aktiengesellschaft, priority 2016, published 2024)
